Data reported in PubChem BioAssay (NCI).
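The compound was tested at five concentrations on cells cultured in 96-well plates, with a 48-hour exposure period. TGI denotes the concentration required for complete inhibition of growth.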

Tests used:
Experiment in all cases: NCI tumour cell line growth inhibition, 48 h
OVCAR-4 ovarian = test system: OVCAR-4 ovarian
SF-268 CNS = test system: SF-268 CNS
RXF 393 renal = test system: RXF 393 renal
A549 NSCLC = test system: A549 NSCLC
A498 renal = test system: A498 renal
UACC-257 melanoma = test system: UACC-257 melanoma
MOLT-4 leukemia = test system: MOLT-4 leukemia
SK-MEL-2 melanoma = test system: SK-MEL-2 melanoma
HL-60(TB) leukemia = test system: HL-60(TB) leukemia
NCI/ADR-RES ovarian = test system: NCI/ADR-RES ovarian
MDA-N = test system: MDA-N
OVCAR-8 ovarian = test system: OVCAR-8 ovarian
MALME-3M melanoma = test system: MALME-3M melanoma
MDA-MB-231 breast = test system: MDA-MB-231 breast
HT29 colon = test system: HT29 colon
KM12 colon = test system: KM12 colon
K-562 leukemia = test system: K-562 leukemia
OVCAR-5 ovarian = test system: OVCAR-5 ovarian
SR leukemia = test system: SR leukemia
ACHN renal = test system: ACHN renal
EKVX NSCLC = test system: EKVX NSCLC
NCI-H226 lung = test system: NCI-H226 lung
TK-10 renal = test system: TK-10 renal
SF-295 CNS = test system: SF-295 CNS
MCF7 breast = test system: MCF7 breast
HS 578T breast = test system: HS 578T breast
HCT-15 colon = test system: HCT-15 colon
HCT-116 colon = test system: HCT-116 colon
BT-549 breast = test system: BT-549 breast
OVCAR-3 ovarian = test system: OVCAR-3 ovarian
U251 CNS = test system: U251 CNS
RPMI-8226 leukemia = test system: RPMI-8226 leukemia
SK-MEL-5 melanoma = test system: SK-MEL-5 melanoma
DU-145 prostate = test system: DU-145 prostate
SW-620 colon = test system: SW-620 colon
786-0 renal = test system: 786-0 renal
MDA-MB-435 = test system: MDA-MB-435
NCI-H522 lung = test system: NCI-H522 lung
PC-3 prostate = test system: PC-3 prostate
NCI-H23 lung = test system: NCI-H23 lung
UACC-62 melanoma = test system: UACC-62 melanoma
SNB-19 CNS = test system: SNB-19 CNS
LOX IMVI melanoma = test system: LOX IMVI melanoma
SN12C renal = test system: SN12C renal
HOP-92 NSCLC = test system: HOP-92 NSCLC
UO-31 renal = test system: UO-31 renal
M14 melanoma = test system: M14 melanoma
IGROV1 ovarian = test system: IGROV1 ovarian
COLO 205 colon = test system: COLO 205 colon
SK-MEL-28 melanoma = test system: SK-MEL-28 melanoma
CAKI-1 renal = test system: CAKI-1 renal
HOP-62 NSCLC = test system: HOP-62 NSCLC
SNB-75 CNS = test system: SNB-75 CNS
CCRF-CEM leukemia = test system: CCRF-CEM leukemia
SF-539 CNS = test system: SF-539 CNS
HCC-2998 colon = test system: HCC-2998 colon
SK-OV-3 ovarian = test system: SK-OV-3 ovarian

Compound: O=C1NC(Cc2c[nH]c3ccccc23)C(=O)N2C(C3CCCCC3)c3[nH]c4ccccc4c3C[C@@H]12 (stereo not given in full)
- TGI (OVCAR-4 ovarian): > 100 µM
- TGI (SF-268 CNS): 49.3 µM
- TGI (RXF 393 renal): 21.2 µM
- TGI (A549 NSCLC): > 100 µM
- TGI (A498 renal): 37.5 µM
- TGI (UACC-257 melanoma): 29 µM
- TGI (MOLT-4 leukemia): 34.6 µM
- TGI (SK-MEL-2 melanoma): 32.2 µM
- TGI (HL-60(TB) leukemia): 42.9 µM
- TGI (NCI/ADR-RES ovarian): 41.2 µM
- TGI (MDA-N): 25.2 µM
- TGI (OVCAR-8 ovarian): 56.7 µM
- TGI (MALME-3M melanoma): 28.4 µM
- TGI (MDA-MB-231 breast): 30.6 µM
- TGI (HT29 colon): 29.6 µM
- TGI (KM12 colon): 31.4 µM
- TGI (K-562 leukemia): 44.8 µM
- TGI (OVCAR-5 ovarian): 43 µM
- TGI (SR leukemia): 34 µM
- TGI (ACHN renal): 77.4 µM
- TGI (EKVX NSCLC): 57.2 µM
- TGI (NCI-H226 lung): 65.7 µM
- TGI (TK-10 renal): 37.6 µM
- TGI (SF-295 CNS): 43.5 µM
- TGI (MCF7 breast): > 100 µM
- TGI (HS 578T breast): 12.7 µM
- TGI (HCT-15 colon): 35.9 µM
- TGI (HCT-116 colon): 22.1 µM
- TGI (BT-549 breast): 40.8 µM
- TGI (OVCAR-3 ovarian): 6.58 µM
- TGI (U251 CNS): 26 µM
- TGI (RPMI-8226 leukemia): 32.8 µM
- TGI (SK-MEL-5 melanoma): 25.4 µM
- TGI (DU-145 prostate): > 100 µM
- TGI (SW-620 colon): 73.7 µM
- TGI (786-0 renal): 28.5 µM
- TGI (MDA-MB-435): 24.6 µM
- TGI (NCI-H522 lung): 28.6 µM
- TGI (PC-3 prostate): 28.3 µM
- TGI (NCI-H23 lung): 51 µM
- TGI (UACC-62 melanoma): 34.5 µM
- TGI (SNB-19 CNS): > 100 µM
- TGI (LOX IMVI melanoma): 28.1 µM
- TGI (SN12C renal): 20.8 µM
- TGI (HOP-92 NSCLC): 46.2 µM
- TGI (UO-31 renal): 33.2 µM
- TGI (M14 melanoma): 28.9 µM
- TGI (IGROV1 ovarian): 36.9 µM
- TGI (COLO 205 colon): 34.9 µM
- TGI (SK-MEL-28 melanoma): 44.4 µM
- TGI (CAKI-1 renal): 55.8 µM
- TGI (HOP-62 NSCLC): 44.9 µM

Compound: Cc1ccc(-c2c(C#N)c(S)n(NS(=O)(=O)c3ccc(C)cc3)c(=O)c2C#N)cc1
- TGI (OVCAR-4 ovarian): 36.4 µM
- TGI (SNB-75 CNS): 37.4 µM
- TGI (RXF 393 renal): 97.5 µM
- TGI (A549 NSCLC): > 100 µM
- TGI (A498 renal): > 100 µM
- TGI (UACC-257 melanoma): > 100 µM
- TGI (MOLT-4 leukemia): > 100 µM
- TGI (SK-MEL-2 melanoma): 62.2 µM
- TGI (HL-60(TB) leukemia): > 100 µM
- TGI (NCI/ADR-RES ovarian): 77.9 µM
- TGI (MDA-N): > 100 µM
- TGI (OVCAR-8 ovarian): 41.8 µM
- TGI (MALME-3M melanoma): 38.7 µM
- TGI (MDA-MB-231 breast): > 100 µM
- TGI (KM12 colon): 35.2 µM
- TGI (K-562 leukemia): > 100 µM
- TGI (OVCAR-5 ovarian): 67 µM
- TGI (SR leukemia): > 100 µM
- TGI (CCRF-CEM leukemia): > 100 µM
- TGI (ACHN renal): 49.8 µM
- TGI (EKVX NSCLC): > 100 µM
- TGI (NCI-H226 lung): 39.6 µM
- TGI (TK-10 renal): 50.5 µM
- TGI (SF-295 CNS): 51.3 µM
- TGI (MCF7 breast): > 100 µM
- TGI (HCT-15 colon): 40.4 µM
- TGI (HCT-116 colon): 90.9 µM
- TGI (BT-549 breast): 47.8 µM
- TGI (OVCAR-3 ovarian): > 100 µM
- TGI (U251 CNS): 37.7 µM
- TGI (RPMI-8226 leukemia): > 100 µM
- TGI (SF-539 CNS): 43.2 µM
- TGI (SK-MEL-5 melanoma): 49.2 µM
- TGI (DU-145 prostate): > 100 µM
- TGI (SW-620 colon): 39.3 µM
- TGI (786-0 renal): > 100 µM
- TGI (MDA-MB-435): 52.8 µM
- TGI (NCI-H522 lung): 48.1 µM
- TGI (PC-3 prostate): > 100 µM
- TGI (NCI-H23 lung): 52.3 µM
- TGI (UACC-62 melanoma): > 100 µM
- TGI (SNB-19 CNS): 52.1 µM
- TGI (LOX IMVI melanoma): > 100 µM
- TGI (SN12C renal): > 100 µM
- TGI (HCC-2998 colon): 46.9 µM
- TGI (HOP-92 NSCLC): > 100 µM
- TGI (UO-31 renal): 38.5 µM
- TGI (M14 melanoma): 81.5 µM
- TGI (SK-OV-3 ovarian): > 100 µM
- TGI (IGROV1 ovarian): 51.1 µM
- TGI (COLO 205 colon): > 100 µM
- TGI (SK-MEL-28 melanoma): 61.2 µM
- TGI (CAKI-1 renal): 74.3 µM
